# Marks after values point to notes of the source that are not given here.
# Columns and labels:
# [1] = test system: sensitive L. Lactis strain MG1614; assay: Minimum inhibitory concentration (MIC); type: cell-based; conditions: Table 5
# [2] = test system: Lactobacillus helveticus CH-1; assay: Plate diffusion bioassay of cell-free extracts / culture supernatants; type: cell-based
# Experimental: 150 μl samples of cell free extracts from strains: 4, FI5876; 5, FI7990; 6, FI8070; 7, FI8198; 8, FI8199 were loaded into wells bored in MRS agar seeded with the indicator strains Lactobacillus helveticus CH-1. Plates were incubated overnight at 42° C. Standards included on the assay plate are: 1,50; 2,100; 3,200; 9,300; 10,400 U/ml.
# (§1) Nisin activity in Lactococcal strains was assayed by both deferred and direct means. Plate diffusion bioassays were performed as previously described (Dodd et al (1992) Appl. Environ. Microbiol. 58, 3683-3693. Colonies growing on the surface of a GM17 plate were directly assayed by inverting over chloroform for 12 minutes and overlaying with agar seeded with the nisin sensitive L. lactis strain MG1614. Plates were incubated overnight and zone sizes around colonies compared with those of controls. Nisin immunity was determined by streaking cultures on a series of GM17 agar plates containing an increasing concentration of nisin and assessing the degree of growth at the different nisin levels. Control cultures (FI5876, positive) and MG1614 (negative) were included on each plate.
# This corresponds to an increase of approximately 50% of nisin A levels, under the conditions used here (Table 1). This higher level of production was not found in the extracts of FI8199, producing the double mutant nisin A/Dha5A,Dha33A. […] In all cases the yield for a particular nisin variant was higher when using this gene replacement strategy than when the equivalent plasmid-encoded gene was employed in a plasmid complementation system (Table 3, Dodd et al (1992) (1993) supra).
# [3] = test system: Lactobacillus helveticus CH-1; conditions: plate diffusion bioassay; plasmid-encoded nisA gene complementing nisA deficiency in host strain FI7332; cited from earlier work
# [4] = test system: sensitive indicator strains; conditions: work described in WO 93/20213; cited from earlier work
# [5] = test system: FI7847 [nisA-(fs)]; assay: Induction by nisin / nisin variants as inducing agent; type: cell-based, L. lactis; parameters: Induction: unit not given here; conditions: strain FI7847
# Experimental: A particularly preferred embodiment of the third aspect of the invention is wherein the cells are cultured in the presence of nisA nisin or a variant nisin which can induce nisin expression. […] By adding sub-inhibitory concentrations of nisin to the growth medium, during fermentation, higher levels of the variant nisin are produced. Any variants that are less efficient as inducing agents benefit from the inclusion of nisin in the growth medium (ie a nisin induction step in the purification procedure). The amount of induction varies depending on the initial induction capacity of any particular variant (with I30W nisin A production more than doubled as a result of induction). Induction may be routinely included in the method as a means of maximising production levels. Any concerns about contamination with the wild type molecule are minimal as the nisin concentration required for induction is negligible compared to the amount of nisin variant being purified. Conveniently, the nisA nisin is a minimum amount that provides maximal induction of nisin production. This amount can be determined empirically by a person skilled in the art. Suitable nisA nisin concentrations for induction in this embodiment are from 1 nM to 500 nM, preferably 10 nM to 250 nM, more preferably 50 nM to 150 nM, most preferably 100 nM.
# In some circumstances it is desirable to add nisA nisin as an inducer.
# [6] = test system: nisin sensitive L. lactis strain MG1614; conditions: colony overlay assay; plasmid complementation; cited from earlier work
# [7] = test system: FI8003 (nisA); assay: Nisin immunity on GM17 agar plates with increasing nisin; type: cell-based, L. lactis; conditions: nisin level tolerated by strain FI8003 nisA (BamHI site in promoter)
# Experimental: as §1
# A possible explanation for the difference in nisin sensitivity of these two Nis^− strains came from gene replacement studies involving the vector pFI740 (FIG. 2d). […] The only difference between the two sequences involved is that pFI740 has an additional BamHI site incorporated 80 bp upstream of the ATG start codon of nisA, and a BglII site immediately downstream of the coding region (FIG. 4). […] A single base pair change introduced as a result of engineering the BamHI site has the effect of converting the -35 sequence from CTGATT to CCGATT (FIG. 4).
# [8] = test system: FI8198 (nisA/S33A); assay: as above; type: cell-based, L. lactis; conditions: nisin level tolerated by strain FI8198 nisA/S33A
# Experimental: as §1
# [9] = test system: FI8199 (nisA/S5A,S33A); assay: as above; type: cell-based, L. lactis; conditions: nisin level tolerated by strain FI8199 nisA/S5A
# Experimental: as §1
# [10] = test system: MG1614; assay: as above; type: cell-based, L. lactis; conditions: nisin level tolerated by strain MG1614
# Experimental: as §1
# [11] = test system: FI8070 (nisA/S5A); assay: as above; type: cell-based, L. lactis; conditions: nisin level tolerated by strain FI8070 nisA/S5A
# Experimental: as §1
# [12] = test system: FI7893 (nisA); assay: as above; type: cell-based, L. lactis; conditions: nisin level tolerated by strain FI7893 nisA
# Experimental: as §1
# [13] = test system: FI7990 (ΔnisA); assay: as above; type: cell-based, L. lactis; conditions: nisin level tolerated by strain FI7990 ΔnisA
# Experimental: as §1
# (§2) The effect of disruption of the nisA gene on immunity of the host strain to nisin has been described previously (Dodd et al (1992) supra). […] The nisA deleted strain FI7990 was sensitive to nisin at a concentration of between 250 and 500 U/ml compared to the parent strain, FI5876, which will continue growing in the presence of nisin to over 1000 U/ml.
# [14] = test system: FI7847 [nisA-(fs)]; assay: as above; type: cell-based, L. lactis; conditions: nisin level tolerated by strain FI7847 nisA-(fs)
# Experimental: as §1, §2
# [15] = test system: FI5876; assay: as above; type: cell-based, L. lactis
# Experimental: as §1, §2
Molecule,MIC [1] [µg/mL],"Activity (% of wt) ([2]; antimicrobial activity in culture supernatants of gene-replaced strains, plate diffusion bioassays)","zone of inhibition / inhibitory effect compared with parent strain FI5876 ([2]; cell extracts of gene-replaced strains, plate diffusion bioassay)","nisin activity (% of wild type), gene replacement ([2]; plate diffusion bioassay, functional nisA gene incorporated in the chromosome of FI7990 in place of nisA deletion)","nisin activity (% of wild type), complementation [3]",antimicrobial activity against sensitive indicator strains [4],Induction ([5]; inducing agent at 100 ng ml^−1),Induction ([5]; inducing agent at 1 mg ml^−1),"antimicrobial activity, plasmid-encoded gene complementing nisA deficiency [6]",Immunity [7],Immunity [8] [U/ml × 10^3],Immunity [9] [U/ml × 10^3],Immunity [10] [U/ml × 10^3],Immunity [11] [U/ml × 10^3],Immunity [12] [U/ml × 10^3],Immunity [13],Immunity [14],Immunity ([15]; nisin level tolerated by strain FI5876 (wild type)) [U/ml × 10^3],nisin concentration at which the strain continues growing ([15]; parent strain FI5876)
"C/C=C(\NC(=O)[C@@H](N)[C@@H](C)CC)C(=O)N[C@@H]1CSC[C@@H](C(=O)N[C@H]2C(=O)N3CCC[C@H]3C(=O)NCC(=O)N[C@H](C(=O)N[C@@H](CCCCN)C(=O)N[C@H]3C(=O)NCC(=O)N[C@@H](C)C(=O)N[C@@H](CC(C)C)C(=O)N[C@@H](CCSC)C(=O)NCC(=O)N[C@H](C(=O)N[C@@H](CC(N)=O)C(=O)N[C@@H](CCSC)C(=O)N[C@@H](CCCCN)C(=O)N[C@H]4C(=O)N[C@@H](C)C(=O)N[C@H]5C(=O)N[C@@H](CS[C@H]4C)C(=O)N[C@@H](Cc4c[nH]cn4)C(=O)N[C@H](C(=O)N[C@@H](CO)C(=O)N[C@H](C(=O)N[C@@H](Cc4c[nH]cn4)C(=O)N[C@H](C(=O)N[C@@H](C)C(=O)N[C@@H](CCCCN)C(=O)O)C(C)C)[C@@H](C)CC)CS[C@H]5C)CS[C@H]3C)CS[C@H]2C)NC(=O)[C@H](CC(C)C)NC(=O)[C@H](C)NC(=O)[C@H]([C@@H](C)CC)NC1=O [nisin A (Dha5A, Dha33A)]",1000,100 % of wt,equivalent that of nisin A containing the single mutation and also the wild type molecule,100 % of wild type,<1^d % of wild type,retained their antimicrobial activity,34,106,only detected in the more sensitive colony overlay assay,,,,,,,,,,
nisin,,,,,,,,,,0.25-0.5 U/ml × 10^3,>1,>1,0.01,>1,>1,0.25-0.5 U/ml × 10^3,0.5-0.75 U/ml × 10^3,>1,over 1000 U/ml
